From US9096615B2, “Bridged bicyclic amino thiazine dioxide compounds as inhibitors of beta-secretase and methods of use thereof” (AMGEN INC., priority 2013, dated 2015)
Where two headings read alike, the source gives them in different places.

Key:
BACE1 = BACE1 (Homo sapiens, UniProt P56817); assay: In vitro enzymatic BACE FRET assay; type: biochemical
Procedure: In Vitro Enzymatic BACE FRET (Fluorescence Resonance Energy Transfer) Assay
Enzyme Assay Data in the Example Table I
The assay buffer used in this screen is 0.05 M acetate, pH 4.2, 10% DMSO final, 100 uM genapol (which is a nonionic detergent, below its Critical Micelle Concentration). The Beta Secretase enzyme (0.2 nM) is pre-incubated for one hour with inhibitors, typically in about 1 uL of DMSO according to a serial dilution, are added thereto. This assay is effectively started by the addition of FRET substrate (50 nM) and the combination is incubated for one hour. The FRET assay is terminated with by addition of Tris buffer, which raises the pH to neutrality, and the fluorescence is determined. The FRET substrate is a peptide with commercially available fluorophore and quencher, on opposite sides of the BACE cleavage site. Proteolytic cleavage of the FRET substrate releases quenching of fluorescence (excitation 488 nm and […]).

Cathepsin D (Cat D) = target: T1, Cathepsin D (Cat D) (Homo sapiens, UniProt P07339); assay: In vitro enzymatic Cathepsin D (Cat D) FRET assay; type: biochemical; conditions: read-out: CatD IC50
T1 construct: made in house; host or cells: CHO cells
T1 sequence (P07339 65-412, species assumed): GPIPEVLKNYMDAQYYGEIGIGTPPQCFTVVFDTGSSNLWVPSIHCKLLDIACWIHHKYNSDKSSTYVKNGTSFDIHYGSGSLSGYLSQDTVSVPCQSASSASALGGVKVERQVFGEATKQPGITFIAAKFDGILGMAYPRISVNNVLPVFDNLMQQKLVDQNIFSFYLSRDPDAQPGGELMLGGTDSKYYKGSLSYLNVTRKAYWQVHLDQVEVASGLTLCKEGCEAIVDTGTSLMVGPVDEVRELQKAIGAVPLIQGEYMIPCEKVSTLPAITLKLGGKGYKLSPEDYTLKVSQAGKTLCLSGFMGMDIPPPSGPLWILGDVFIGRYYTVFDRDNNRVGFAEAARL
Procedure: In Vitro Enzymatic Cathepsin D (Cat D) FRET (Fluorescence Resonance Energy Transfer) Assay
Recombinant Cat D was expressed in CHO cells. The assay buffer for CathepsinD is 0.05 M citrate pH 3.5, 10% DMSO final, 5 mM CHAPS. The Cat D enzyme (9 nM) is pre-incubated for one hour with inhibitors, typically in about 1 uL of DMSO according to a serial dilution, is added thereto. The assays are effectively started by the addition of different FRET substrates (20 nM for Cat D) and the combination is incubated for one hour. The FRET assay is terminated with by addition of Tris buffer, which raises the pH to neutrality, and the fluorescence is determined. The FRET substrate is a peptide with commercially available fluorophore and quencher, on opposite sides of the BACE cleavage site. The Cat D substrate peptide sequence is based on sequence #1 of Table 1 from Gulnik et al. FEBS Letters v413 p 379-384 1997. Proteolytic cleavage of the FRET substrate releases quenching of fluorescence (Cat D excitation 500 nm and emission 580 nm). […]
Where available, the in-vitro Cat D FRET assay data for each of the Examples, conducted by the first procedure, is provided in Tables 1 and 3. For example, the compound of example 28 has a Cat D IC50 value of >400 uM.

[1] = test system: Aβ40 in conditioned medium of cells stably expressing Amyloid Precursor Protein (APP); assay: In vitro BACE cell-based assay (HEK cell assay, Aβ40 sandwich ELISA); conditions: Homo sapiens, HEK293
Procedure: In Vitro BACE Cell-Based Assay
The cell-based assay measures inhibition or reduction of Aβ40 in conditioned medium of test compound treated cells expressing amyloid precursor protein.
Cells stably expressing Amyloid Precursor Protein (APP) were plated at a density of 40K cells/well in 96 well plates (Costar). The cells were cultivated for 24 hours at 37° C. and 5% CO2 in DMEM supplemented with 10% FBS. The test compounds were then added to cells in 10-point dose response concentrations with the starting concentration being either 100 μM or 10 μM. The compounds were diluted from stock solutions in DMSO and the final DMSO concentration of the test compounds on cells was 0.1%. After 24 h of incubation with the test compounds the supernatant conditioned media was collected and the Aβ 40 levels were determined using a sandwich ELISA. The IC50 of the compound was calculated from the percent of control or percent inhibition of Aβ 40 as a function of the concentration of the test compound.
The sandwich ELISA to detect Aβ 40 was performed in 96 well microtiter plates, which were pre-treated with goat anti-rabbit IgG (Pierce). The capture and detecting antibody pair that were used to detect Aβ 40 from cell supernatants were affinity purified pAb40 (Biosource) and biotinylated 6E10 (Signet Labs Inc.), respectively. The optimal concentration for the pAb40 antibody was 3 μg/ml in Superblock/TBS (Pierce) that was supplemented with 0.05% Tween 20 (Sigma). Optimal concentration for the detection antibody 6E10-biotinylated was 0.5 μg/ml in Superblock/TBS (Pierce) that had been supplemented with 2% normal goat serum and 2% normal mouse serum.
Cellular supernatants were incubated with the capture antibody for 3 h at 4° C., followed by 3 wash steps in TBS-tween (0.05%). The detecting antibody incubation was for 2 h at 4° C., again followed by the wash steps as described previously. The final readout of the ELISA is Time-Resolved Fluorescence (counts per minute) using Delfia reagents Streptavidin-Europium and Enhancement solutions (Perkin Elmer) and the Victor 2 multilabel counter (Perkin Elmer).

[2] = average IC50, read-out: BACE1 Enzyme assay IC50
[3] = average IC50, read-out: BACE1 cell assay IC50
[4] = read-out: BACE1 FRET assay IC50
[5] = Aβ40, 24 h incubation, read-out: HEK cell assay IC50

Chain of BACE1 (P56817 46-501, species assumed): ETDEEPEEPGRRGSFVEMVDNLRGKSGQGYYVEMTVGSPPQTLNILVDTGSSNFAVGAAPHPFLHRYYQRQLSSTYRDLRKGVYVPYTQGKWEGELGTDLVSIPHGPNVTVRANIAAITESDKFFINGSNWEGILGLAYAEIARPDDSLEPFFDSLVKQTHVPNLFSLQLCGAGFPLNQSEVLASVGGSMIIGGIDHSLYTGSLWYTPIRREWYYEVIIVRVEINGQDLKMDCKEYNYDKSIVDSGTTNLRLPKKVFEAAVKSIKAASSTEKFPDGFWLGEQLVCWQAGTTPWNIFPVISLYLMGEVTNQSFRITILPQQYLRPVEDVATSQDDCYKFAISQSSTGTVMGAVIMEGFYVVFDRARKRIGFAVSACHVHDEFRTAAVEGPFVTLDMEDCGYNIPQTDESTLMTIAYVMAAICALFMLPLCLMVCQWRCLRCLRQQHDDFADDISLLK

| IC50 (BACE1; [2]) [µM] | IC50 (Cathepsin D (Cat D); average IC50, first procedure) [µM] | IC50 [1, 3] [µM] | IC50 (BACE1; [4]) [µM] | IC50 (Cathepsin D (Cat D)) [µM] | IC50 [1, 5] [µM] | SMILES |
| --- | --- | --- | --- | --- | --- | --- |
| 0.002 | > 400 | 0.001 |  |  |  | Cn1ccc(COc2cnc3c(Nc4ccc(F)c([C@@]5(C)N=C(N)[C@@]6(C)CC[C@@H]5S6(=O)=O)c4)nccc3n2)n1 [Example 147, N-(3-((1S,2R,5R)-4-amino-2,5-dimethyl-8,8-dioxido-8-thia-3-azabicyclo[3.2.1]oct-3-en-2-yl)-4-fluorophenyl)-2-((1-methyl-1H-pyrazol-3-yl)methoxy)pyrido[3,4-b]pyrazin-5-amine] |
| 0.049 | > 400 | 0.088 |  |  |  | COc1cnc(C(=O)Nc2ccc(F)c([C@@]3(CF)N=C(N)[C@@]4(C)CC[C@@H]3S4(=O)=O)c2)cn1 (single isomer, unassigned) [Example 120] |
|  |  |  | 0.007 | 270 | 0.02 | Cc1cc(Cl)cnc1C(=O)Nc1ccc(F)c([C@@]2(C)N=C(N)[C@]3(C)CCC[C@H]2S3(=O)=O)c1 [Example 4, N-(3-((1R,2R,5S)-4-Amino-2,5-dimethyl-9,9-dioxido-9-thia-3-azabicyclo[3.3.1]non-3-en-2-yl)-4-fluorophenyl)-5-chloro-3-methylpicolinamide] |
|  |  |  | 0.049 | 138 | 0.027 | COc1cnc(C(=O)Nc2ccc(F)c([C@@]3(C)N=C(N)[C@@]4(C)CCC[C@]3(C)S4(=O)=O)c2)cn1 [Example 15, N-(3-((1S,2R,5R)-4-Amino-1,2,5-trimethyl-9,9-dioxido-9-thia-3-azabicyclo[3.3.1]non-3-en-2-yl)-4-fluorophenyl)-5-methoxypyrazine-2-carboxamide] |
| 0.006 | 317 | 0.028 |  |  |  | COc1cnc2c(Nc3ccc(F)c([C@@]4(C)N=C(N)[C@@]5(CF)CC[C@@H]4S5(=O)=O)c3)ncc(F)c2c1 [Example 99, N-(3-((1S,2R,5R)-4-amino-5-(fluoromethyl)-2-methyl-8,8-dioxido-8-thia-3-azabicyclo[3.2.1]oct-3-en-2-yl)-4-fluorophenyl)-5-fluoro-3-methoxy-1,7-naphthyridin-8-amine] |
|  |  |  | 0.008 | 577 | 0.017 | Cc1cc(Cl)cnc1C(=O)Nc1ccc(F)c([C@@]2(C)N=C(N)[C@]3(C)CC[C@H]2S3(=O)=O)c1 [Example 26, N-(3-((1R,2R,5S)-4-Amino-2,5-dimethyl-8,8-dioxido-8-thia-3-azabicyclo[3.2.1]oct-3-en-2-yl)-4-fluorophenyl)-5-chloro-3-methylpicolinamide] |
| 0.044 | 255 | 0.047 |  |  |  | Cc1cc(C(F)(F)F)cnc1C(=O)Nc1ccc(F)c([C@@]2(CF)N=C(N)[C@]3(C)CC[C@H]2S3(=O)=O)c1 (single isomer, unassigned) [Example 116] |
|  |  |  | 0.007 | 22.6 | 0.22 | Cc1cc(Cl)cnc1C(=O)Nc1ccc(F)c([C@@]2(C)N=C(N)[C@@]3(C)CCC[C@]2(F)S3(=O)=O)c1 [Example 7, N-(3-((1S,2R,5R)-4-Amino-1-fluoro-2,5-dimethyl-9,9-dioxido-9-thia-3-azabicyclo[3.3.1]non-3-en-2-yl)-4-fluorophenyl)-5-chloro-3-methylpicolinamide] |
|  |  |  | 0.003 | 717 | 0.006 | Cc1cc(Cl)cnc1C(=O)Nc1ccc(F)c([C@@]2(C)N=C(N)[C@H]3CCC[C@@H]2S3(=O)=O)c1 [Example 20, N-(3-((1S,2R,5R)-4-Amino-2-methyl-9,9-dioxido-9-thia-3-azabicyclo[3.3.1]non-3-en-2-yl)-4-fluorophenyl)-5-chloro-3-methylpicolinamide] |
|  |  |  | 0.009 | 8.75 | 0.035 | Cc1cc(OC(F)F)cnc1C(=O)Nc1ccc(F)c([C@@]2(C)N=C(N)[C@]3(C)CCC[C@@]2(F)S3(=O)=O)c1 [Example 10, N-(3-((1R,2R,5S)-4-Amino-1-fluoro-2,5-dimethyl-9,9-dioxido-9-thia-3-azabicyclo[3.3.1]non-3-en-2-yl)-4-fluorophenyl)-5-(difluoromethoxy)-3-methylpicolinamide] |
| 0.024 | > 400 | 0.111 |  |  |  | Cc1cc(Cl)cnc1C(=O)Nc1ccc(F)c([C@@]2(CF)N=C(N)[C@]3(C)CC[C@H]2S3(=O)=O)c1 [Example 72, N-(3-((1R,2S,5S)-4-amino-2-(fluoromethyl)-5-methyl-8,8-dioxido-8-thia-3-azabicyclo[3.2.1]oct-3-en-2-yl)-4-fluorophenyl)-5-chloro-3-methyl-2-pyridinecarboxamide] |
| 0.061 | 3460 | 0.082 |  |  |  | Cc1cc(C(F)(F)F)cnc1C(=O)Nc1ccc(F)c([C@@]2(CF)N=C(N)[C@@]3(C)CC[C@@H]2S3(=O)=O)c1 (single isomer, unassigned) [Example 114] |
|  |  |  | 0.004 | 1170 | 0.001 | COc1cnc(C(=O)Nc2ccc(F)c([C@@]3(C)N=C(N)[C@@]4(C)CC[C@@H]3S4(=O)=O)c2)cn1 [Example 37, N-(3-((1S,2R,5R)-4-amino-2,5-dimethyl-8,8-dioxido-8-thia-3-azabicyclo[3.2.1]oct-3-en-2-yl)-4-fluorophenyl)-5-methoxy-2-pyrazinecarboxamide] |
| 0.588 | 4440 | 0.103 |  |  |  | COc1ccc(C(=O)Nc2ccc(F)c([C@@]3(C)N=C(N)[C@]4(C)CC[C@H]3S4(=O)=O)c2)c(F)c1 [Example 124, N-(3-((1R,2R,5S)-4-amino-2,5-dimethyl-8,8-dioxido-8-thia-3-azabicyclo[3.2.1]oct-3-en-2-yl)-4-fluorophenyl)-2-fluoro-4-methoxybenzamide] |
|  |  |  | 0.005 | 29.7 | 0.033 | Cc1cc(Cl)cnc1C(=O)Nc1ccc(F)c([C@@]2(C)N=C(N)[C@]3(C)CCC[C@@]2(C)S3(=O)=O)c1 [Example 12, N-(3-((1R,2R,5S)-4-Amino-1,2,5-trimethyl-9,9-dioxido-9-thia-3-azabicyclo[3.3.1]non-3-en-2-yl)-4-fluorophenyl)-5-chloro-3-methylpicolinamide] |
| 0.029 | 482 | 0.018 |  |  |  | C[C@]12CC[C@H]([C@@](C)(c3cc(Nc4ncnc5cc(Cl)cnc45)ccc3F)N=C1N)S2(=O)=O [Example 131, N-(3-((1R,2R,5S)-4-amino-2,5-dimethyl-8,8-dioxido-8-thia-3-azabicyclo[3.2.1]oct-3-en-2-yl)-4-fluorophenyl)-7-chloropyrido[3,2-d]pyrimidin-4-amine] |
| 0.016 | 217 | 0.019 |  |  |  | C[C@]1(c2cc(Nc3nccc4[nH]c(=O)cnc34)ccc2F)N=C(N)[C@@]2(CF)CC[C@@H]1S2(=O)=O [Example 148, 5-((3-((1S,2R,5R)-4-amino-5-(fluoromethyl)-2-methyl-8,8-dioxido-8-thia-3-azabicyclo[3.2.1]oct-3-en-2-yl)-4-fluorophenyl)amino)pyrido[3,4-b]pyrazin-2(1H)-one] |
